In ChEMBL document CHEMBL4406886, “Discovery of arylamide-5-anilinoquinazoline-8-nitro derivatives as VEGFR-2 kinase inhibitors: Synthesis, in vitro biological evaluation and molecular docking” (Bioorg Med Chem Lett, 2019):
The source made the active and inactive calls. The calls are words filed in the database; no cut-off is given here.

Assays:
[1] = target: Epidermal growth factor receptor (Homo sapiens) (UniProt P00533); assay: Inhibition of EGFR (unknown origin) at 1 uM using poly (Glu,Tyr) 4:1 as substrate measured after 1 hr in presence of ATP by spectrophotometric analysis relative to control
Chain of Epidermal growth factor receptor (Homo sapiens) (P00533 whole entry): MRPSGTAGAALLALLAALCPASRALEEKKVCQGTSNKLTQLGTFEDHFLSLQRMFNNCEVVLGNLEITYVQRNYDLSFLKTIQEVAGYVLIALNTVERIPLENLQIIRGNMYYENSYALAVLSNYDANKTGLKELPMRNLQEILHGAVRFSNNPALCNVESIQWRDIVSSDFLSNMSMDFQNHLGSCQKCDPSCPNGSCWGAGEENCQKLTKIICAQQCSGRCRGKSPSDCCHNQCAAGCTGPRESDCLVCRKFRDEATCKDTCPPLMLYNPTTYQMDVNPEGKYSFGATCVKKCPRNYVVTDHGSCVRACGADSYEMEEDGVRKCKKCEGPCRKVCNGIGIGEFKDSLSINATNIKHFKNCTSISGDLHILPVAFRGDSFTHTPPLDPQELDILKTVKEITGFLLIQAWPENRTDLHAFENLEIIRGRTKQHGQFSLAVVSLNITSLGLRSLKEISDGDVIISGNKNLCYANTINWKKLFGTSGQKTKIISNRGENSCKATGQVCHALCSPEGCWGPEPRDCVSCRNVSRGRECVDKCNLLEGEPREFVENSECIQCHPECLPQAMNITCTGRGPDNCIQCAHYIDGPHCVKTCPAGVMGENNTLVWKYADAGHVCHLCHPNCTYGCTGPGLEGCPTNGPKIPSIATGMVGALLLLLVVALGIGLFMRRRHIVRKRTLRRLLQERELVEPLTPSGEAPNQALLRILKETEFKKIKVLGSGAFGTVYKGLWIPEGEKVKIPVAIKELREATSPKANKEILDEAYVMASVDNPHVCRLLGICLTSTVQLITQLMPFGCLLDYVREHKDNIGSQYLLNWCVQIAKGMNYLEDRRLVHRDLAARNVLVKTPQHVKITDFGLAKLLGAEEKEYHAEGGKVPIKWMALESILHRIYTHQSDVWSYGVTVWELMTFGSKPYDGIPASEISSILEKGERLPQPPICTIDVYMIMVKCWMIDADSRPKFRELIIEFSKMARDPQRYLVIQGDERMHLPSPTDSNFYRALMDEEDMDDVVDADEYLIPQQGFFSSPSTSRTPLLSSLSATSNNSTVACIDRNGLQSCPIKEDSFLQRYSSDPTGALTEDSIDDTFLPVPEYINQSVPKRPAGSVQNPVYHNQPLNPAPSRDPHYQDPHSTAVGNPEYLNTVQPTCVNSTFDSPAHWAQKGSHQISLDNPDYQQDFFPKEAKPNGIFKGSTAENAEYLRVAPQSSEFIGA

[2] = system: HUVEC; assay: Antiproliferative activity against human HUVEC cells expressing VEGFR2 assessed as cell growth inhibition measured after 48 hrs by MTT assay; type: functional, cell-based
[3] = system: HepG2; assay: Antiproliferative activity against human HepG2 cells expressing VEGFR2 assessed as cell growth inhibition measured after 48 hrs by MTT assay; type: functional, cell-based; details: HepG2, 48 h
[4] = system: A549; assay: Antiproliferative activity against human A549 cells expressing EGFR assessed as cell growth inhibition measured after 48 hrs by MTT assay; type: functional, cell-based; details: A549, 48 h
[5] = system: MDA-MB-231; assay: Antiproliferative activity against human MDA-MB-231 cells expressing EGFR assessed as cell growth inhibition measured after 48 hrs by MTT assay; type: functional, cell-based; details: MDA-MB-231, 48 h
[6] = target: T1, Vascular endothelial growth factor receptor 2 (Homo sapiens, UniProt P35968); details: at 1 µM
T1 sequence (P35968 whole entry): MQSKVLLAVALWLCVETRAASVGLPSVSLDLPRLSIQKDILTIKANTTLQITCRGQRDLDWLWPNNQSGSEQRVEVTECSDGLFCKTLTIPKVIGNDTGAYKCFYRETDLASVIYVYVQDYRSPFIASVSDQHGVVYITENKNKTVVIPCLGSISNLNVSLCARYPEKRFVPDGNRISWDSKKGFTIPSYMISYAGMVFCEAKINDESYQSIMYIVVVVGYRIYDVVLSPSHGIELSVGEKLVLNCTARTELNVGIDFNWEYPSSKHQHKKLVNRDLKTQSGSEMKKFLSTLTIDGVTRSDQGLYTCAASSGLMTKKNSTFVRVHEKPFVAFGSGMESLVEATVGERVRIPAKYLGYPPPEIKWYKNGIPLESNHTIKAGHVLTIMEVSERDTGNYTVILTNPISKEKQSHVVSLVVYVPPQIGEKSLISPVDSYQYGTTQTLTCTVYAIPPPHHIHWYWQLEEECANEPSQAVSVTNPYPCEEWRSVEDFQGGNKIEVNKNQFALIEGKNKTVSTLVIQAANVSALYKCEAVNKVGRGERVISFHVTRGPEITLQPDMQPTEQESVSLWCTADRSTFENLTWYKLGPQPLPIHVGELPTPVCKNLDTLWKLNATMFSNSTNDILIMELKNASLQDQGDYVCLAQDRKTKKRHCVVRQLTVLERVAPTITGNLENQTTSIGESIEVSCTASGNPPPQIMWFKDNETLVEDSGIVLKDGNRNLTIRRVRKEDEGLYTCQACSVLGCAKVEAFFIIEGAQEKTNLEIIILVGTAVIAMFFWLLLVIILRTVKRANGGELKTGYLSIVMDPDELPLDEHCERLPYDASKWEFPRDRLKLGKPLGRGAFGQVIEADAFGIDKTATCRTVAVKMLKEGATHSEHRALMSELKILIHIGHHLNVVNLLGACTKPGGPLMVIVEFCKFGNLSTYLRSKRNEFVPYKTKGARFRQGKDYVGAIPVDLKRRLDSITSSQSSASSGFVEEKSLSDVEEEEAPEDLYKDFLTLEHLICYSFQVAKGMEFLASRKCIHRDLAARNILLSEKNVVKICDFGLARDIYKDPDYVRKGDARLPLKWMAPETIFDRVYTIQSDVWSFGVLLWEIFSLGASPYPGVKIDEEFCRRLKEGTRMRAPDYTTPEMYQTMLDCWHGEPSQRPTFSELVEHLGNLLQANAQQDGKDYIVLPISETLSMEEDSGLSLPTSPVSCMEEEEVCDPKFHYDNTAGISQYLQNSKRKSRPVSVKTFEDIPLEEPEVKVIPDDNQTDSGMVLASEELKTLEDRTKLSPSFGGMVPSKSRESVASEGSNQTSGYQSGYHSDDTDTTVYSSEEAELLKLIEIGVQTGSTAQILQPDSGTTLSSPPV
Description: Inhibition of VEGFR2 (unknown origin) at 1 uM using poly (Glu,Tyr) 4:1 as substrate measured after 1 hr in presence of ATP by spectrophotometric analysis relative to control

[7] = system: Chorioallantoic membrane; assay: Antiangiogenic activity in chicken fertilized egg chorioallantoic membrane assessed as decrease in blood vessel growth at 10 nM measured after 48 hrs by microscopic analysis; type: functional, tissue-based; details: Gallus gallus
[8] = system: L02; assay: Cytotoxicity against human LO2 cells; type: cell-based
[9] = target: T1, Vascular endothelial growth factor receptor 2; assay: Inhibition of VEGFR2 (unknown origin) using poly (Glu,Tyr) 4:1 as substrate measured after 1 hr in presence of ATP by spectrophotometric analysis
[10] = system: HepG2; assay: Cell cycle arrest in human HepG2 cells assessed as accumulation at G1 phase at 1 nM measured after 6 hrs by propidium iodide staining based flow cytometry analysis (reference value: 47.9 %); type: functional
[11] = system: HepG2; assay: Cell cycle arrest in human HepG2 cells assessed as accumulation at G2 phase at 1 nM measured after 6 hrs by propidium iodide staining based flow cytometry analysis (reference value: 52.1 %); type: functional
[12] = system: HepG2; assay: Cell cycle arrest in human HepG2 cells assessed as accumulation at S phase at 1 nM measured after 6 hrs by propidium iodide staining based flow cytometry analysis (reference value: 0 %); type: functional
[13] = system: HepG2; assay: Cell cycle arrest in human HepG2 cells assessed as accumulation at G1 phase at 10 nM measured after 6 hrs by propidium iodide staining based flow cytometry analysis (reference value: 47.9 %); type: functional
[14] = system: HepG2; assay: Cell cycle arrest in human HepG2 cells assessed as accumulation at G2 phase at 10 nM measured after 6 hrs by propidium iodide staining based flow cytometry analysis (reference value: 52.1 %); type: functional
[15] = system: HepG2; assay: Cell cycle arrest in human HepG2 cells assessed as accumulation at S phase at 10 nM measured after 6 hrs by propidium iodide staining based flow cytometry analysis (reference value: 0 %); type: functional
[16] = system: HepG2; assay: Induction of apoptosis in human HepG2 cells assessed as apoptotic cells at 1 nM measured after 6 to 24 hrs by dUTP-FITC/propidium iodide staining based flow cytometry analysis (reference value: 2.6 %); type: functional
[17] = system: HepG2; assay: Induction of apoptosis in human HepG2 cells assessed as apoptotic cells at 10 nM measured after 6 to 24 hrs by dUTP-FITC/propidium iodide staining based flow cytometry analysis (reference value: 2.6 %); type: functional
[18] = Solubility of compound; type: physicochemical
[19] = system: HepG2; assay: Cell cycle arrest in human HepG2 cells assessed as accumulation at G0/G1 phase measured after 6 hrs by propidium iodide staining based flow cytometry analysis; type: functional
[20] = system: HepG2; assay: Induction of apoptosis in human HepG2 cells assessed as necrotic cells at 1 nM measured after 24 hrs by dUTP-FITC/propidium iodide staining based flow cytometry analysis (reference value: 0.2 %)
[21] = system: HepG2; assay: Induction of apoptosis in human HepG2 cells assessed as necrotic cells at 10 nM measured after 24 hrs by dUTP-FITC/propidium iodide staining based flow cytometry analysis (reference value: 0.2 %)

Compound	inhibition [1] [%]	IC50 [3] [µM]	IC50 [4] [µM]	IC50 [5] [µM]	inhibition [6] [%]	IC50 [2] [µM]	Activity [7]	also measured
O=C(Nc1cccc(Nc2ccc([N+](=O)[O-])c3ncnc(O)c23)c1)c1ccccc1F	17.2	69.6	> 100	> 100	35.8	70.4		
Cc1cccc(C(=O)Nc2ccc(Nc3ccc([N+](=O)[O-])c4ncnc(O)c34)cc2)c1	37.8	40.8	> 100	> 100	58.2	47		
Cc1cccc(C(=O)Nc2cccc(Nc3ccc([N+](=O)[O-])c4ncnc(O)c34)c2)c1	11.3	> 100	> 100	> 100	18	93.6		
O=C(Nc1ccc(Nc2ccc([N+](=O)[O-])c3ncnc(O)c23)cc1)c1ccccc1Cl	50.3	28	90.3	96.1	76.9	26.5	Active	
O=C(Nc1ccc(Nc2ccc([N+](=O)[O-])c3ncnc(O)c23)cc1)c1cccc(F)c1	36.9	36.1	83.3	> 100	69.4	38.9	Active	
O=C(Nc1ccc(Nc2ccc([N+](=O)[O-])c3ncnc(O)c23)cc1)c1cccc(Cl)c1	27.7	42	> 100	> 100	63.2	36.7	Active	
Cc1ccc(C(=O)Nc2ccc(CN3CCN(C)CC3)c(C(F)(F)F)c2)cc1C#Cc1cnc2cccnn12 [PONATINIB]		0.6	5.3	10.5		0.5		IC50 [8]: 64.7 µM
O=C(Nc1ccc(Nc2ccc([N+](=O)[O-])c3ncnc(O)c23)cc1)Nc1cc(C(F)(F)F)ccc1Cl	21.8	13.7	> 100	> 100	102	2.1		IC50 [8]: 84.2 µM; IC50 [9]: 0.0154 µM
O=C(Nc1ccc(Nc2ccc([N+](=O)[O-])c3ncnc(O)c23)cc1)c1ccccc1	53.8	7.41	87.4	86.3	92.4	5.7	Active	IC50 [8]: 65.3 µM; IC50 [9]: 0.735 µM
O=C(Nc1cccc(Nc2ccc([N+](=O)[O-])c3ncnc(O)c23)c1)c1ccc(Cl)cc1	9.4	76.3	> 100	> 100	38.5	73.8		
O=C(Nc1cccc(Nc2ccc([N+](=O)[O-])c3ncnc(O)c23)c1)c1ccccc1Cl	22.5	71.9	> 100	> 100	30.1	74.6		
Cc1ccccc1C(=O)Nc1ccc(Nc2ccc([N+](=O)[O-])c3ncnc(O)c23)cc1	41.7	30.1	91.6	> 100	65.8	37.2		
O=C(Nc1cccc(Nc2ccc([N+](=O)[O-])c3ncnc(O)c23)c1)c1ccc(F)cc1	18.5	68.5	95	> 100	41.9	63.2		
O=C(Nc1ccc(Nc2ccc([N+](=O)[O-])c3ncnc(O)c23)cc1)c1ccc(Cl)cc1	64.1	0.9	83	95.1	97.9	1.6	Active	IC50 [8]: 73.5 µM; IC50 [9]: 0.363 µM
COc1ccccc1C(=O)Nc1ccc(Nc2ccc([N+](=O)[O-])c3ncnc(O)c23)cc1	43.6	40.7	> 100	95.8	60.3	36.3		
CNC(=O)c1cc(Oc2ccc(NC(=O)Nc3ccc(Cl)c(C(F)(F)F)c3)cc2)ccn1 [SORAFENIB]		3.6	8.1	15.8		4.1	Active	IC50 [8]: 72.9 µM
O=C(Nc1cccc(Nc2ccc([N+](=O)[O-])c3ncnc(O)c23)c1)c1cccc(Cl)c1	26.3	93	> 100	> 100	29.2	86.5		

More lines, main results first:

inhibition [1] [%]	IC50 [3] [µM]	IC50 [4] [µM]	IC50 [5] [µM]	inhibition [6] [%]	Compound	IC50 [2] [µM]	Activity [7]	also measured
15.4	75.2	> 100	> 100	37.8	O=C(Nc1cccc(Nc2ccc([N+](=O)[O-])c3ncnc(O)c23)c1)c1ccccc1	79.1		
12.4	90.3	> 100	> 100	26.9	COc1ccccc1C(=O)Nc1cccc(Nc2ccc([N+](=O)[O-])c3ncnc(O)c23)c1	82		
69.2	0.2	69	58.4	102	O=C(Nc1ccc(Nc2ccc([N+](=O)[O-])c3ncnc(O)c23)cc1)c1ccc(F)cc1	0.5	Active	IC50 [8]: 63.2 µM; IC50 [9]: 0.0648 µM; Activity [10]: 52.6%; Activity [11]: 35.9%; Activity [12]: 11.5%; Activity [13]: 41.7%; Activity [14]: 24.3%; Activity [15]: 34%; Activity [16]: 34.3%; Activity [17]: 72.2%; solubility [18]: Soluble; Activity [19]: Dose-dependent effect; Activity [20]: 2.5%; Activity [21]: 2.1%
36.7	64.2	> 100	> 100	47.6	COc1cccc(C(=O)Nc2ccc(Nc3ccc([N+](=O)[O-])c4ncnc(O)c34)cc2)c1	57.8		
6.4	90.3	> 100	> 100	21.6	Cc1ccccc1C(=O)Nc1cccc(Nc2ccc([N+](=O)[O-])c3ncnc(O)c23)c1	89.6		
12.8	74	> 100	> 100	32.7	Cc1ccc(C(=O)Nc2cccc(Nc3ccc([N+](=O)[O-])c4ncnc(O)c34)c2)cc1	80.5		
42.1	21	85.8	93.2	73.8	O=C(Nc1ccc(Nc2ccc([N+](=O)[O-])c3ncnc(O)c23)cc1)c1ccccc1F	23.8	Active	
27.3	72.1	> 100	> 100	38.1	O=C(Nc1cccc(Nc2ccc([N+](=O)[O-])c3ncnc(O)c23)c1)c1cccc(F)c1	74.2		
57.2	18.5	> 100	94.7	83.7	Cc1ccc(C(=O)Nc2ccc(Nc3ccc([N+](=O)[O-])c4ncnc(O)c34)cc2)cc1	14.3	Active	IC50 [8]: 93.2 µM
